Experimental data taken from article PMC12948223, “HSP70 Interactome‐Mediated Proteolysis Targeting Chimera (HSP70‐PROTAC) for Ferroptosis‐Driven Cancer Treatment” (Advanced Science, 2025).

Legend:
Format in all cases: cell-based, human
MDA = MDA content in HT1080 cells; conditions: HT1080 cells, 0.1, 0.5 and 1 µM, 24 h
Procedure: HT1080 cells were seeded into 10‐cm diameter culture dishes at a density of 2 × 10⁶ cells overnight and then exposed to GDAz‐3 (0.1, 0.5, and 1 µM). The cells were cultured for another 24 h, and the culture medium was discarded, washed with PBS, and lysed using IP lysis buffer (Servicebio, G2038). After lysis, the samples were centrifuged at 12 000 × g for 15 min at 4 °C. The supernatant was collected, and the MDA content was determined according to the instructions of the Lipid Peroxidation MDA Assay Kit (Beyotime Biotechnology, S00131S).

Fe2+ = assay: Intracellular Fe2+ in HT1080 cells; conditions: HT1080 cells, 0.1, 0.5 and 1 µM, 24 h
Procedure: HT1080 cells were seeded into 10‐cm culture dishes at a density of 2 × 10⁶ cells overnight, and various concentrations of GDAz‐3 (0.1, 0.5, and 1 µM) were added. The cells were digested and collected after treatment with drugs for 24 h. The cells were detected according to the instructions of the Cell Ferrous Iron (Fe^2⁺) Fluorometric Assay Kit (E‐BC‐F101, Elabscience Biotechnology Co., Ltd.). In brief, the cells were washed twice with Reagent 1 working solution in the kit, and then Reagent 2 working solution was added (1 mL per 10⁶ cells). The cells were incubated at 37 °C in the dark for 30–60 min. The samples were centrifuged at 300 × g for 5 min, and the supernatant was discarded. The cells were washed two to three times with Reagent 1 working solution. After resuspending the cells in 0.2–0.5 mL of Reagent 1 working solution, the samples were detected using a fluorescence microplate reader (excitation wavelength: 542 nm, emission wavelength: 575 nm).

GPX4 mRNA = assay: Real-time qRT-PCR of GPX4 mRNA in HT1080 cells; conditions: HT1080 cells, 0.1, 0.3, 1 and 3 µM, 24 h
Procedure: Real‐time qRT‐PCR was used to determine the mRNA expression level of GPX4 gene in HT1080 cells. In brief, HT1080 cells were seeded in 6‐well plates at a density of 4.5 × 10^5 cells per well and allowed to adhere overnight. Subsequently, the cells were exposed to different concentrations of the test compound GDAz‐3 for 24 h. Total RNA from the various cell samples was extracted using an RNA‐Quick Purification Kit (#RC112, Vazyme, Nanjing, China) according to the manufacturer's instructions. The concentrations of the isolated RNA samples were determined using NanoDrop. A total of 2 µg RNA was used to synthesize cDNA using Fast‐All‐in‐One RT Kit (#RT001, ES Science, Shanghai) following the manufacturer's guidelines. Real‐time PCR was performed using 2xSuper SYBR Green QPCR Master Mix (#QP002, ES Science, Shanghai) and determined using a CFX96 PCR instrument with the following cycling conditions: 95 °C for 5 min, 95 °C for 10 s, and 60 °C for 30 s, 40 cycles. The data were analyzed by Bio‐Rad CFX Manager Software version 3.1. The primers used in this experiment were as follows: […]

HT1080 cells = assay: Cell viability CCK-8 assay; conditions: Homo sapiens, HT-1080, CCK-8, 48 h, read-out: IC50 (cytotoxicity)
Outline: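 HT1080 cells seeded 24 h, then exposed to serial compound dilutions (final DMSO <0.5% v/v) for 48 or 72 h at 37 °C. Viability by CCK-8 absorbance at 450 nm; IC50 from nonlinear regression, ≥3 independent repeats.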

SLC7A11 = assay: Western blot of SLC7A11 in HT1080 cells; conditions: 24 h
intracellular LPO = assay: Intracellular LPO (C11-BODIPY 581/591, flow cytometry) in HT1080 cells; conditions: 12 h
Procedure: The level of LPO was determined by flow cytometry using the C11‐BODIPY^581/591 dye. In short, HT1080 cells were incubated in 6‐well plates at a density of 5 × 10^4 cells per well for 24 h. After that, the culture medium was substituted with a fresh medium containing GDAz‐3, ML162, or a mixture of GDAz‐3 and Fer‐1 at the specified concentrations. Following a 12‐h incubation period, HT1080 cells were stained with C11‐BODIPY^581/591 dye for 10 min. Finally, the cell samples were collected, washed twice with phosphate‐buffered saline (PBS), and then analyzed by flow cytometry.

intracellular ROS = assay: Intracellular ROS (DCFH-DA, CLSM) in HT1080 cells; conditions: 1 µM, 24 h
Procedure: To assess the total intracellular levels of reactive oxygen species (ROS), a DCFH‐DA (Dichloro‐dihydro‐fluorescein diacetate) assay kit was utilized. Briefly, HT1080 cells were seeded into confocal laser culture dishes and allowed to adhere for 24 h. Afterward, the cells were treated with GDAz‐3 at a concentration of 1 µM for 24 h. Subsequently, a DCFH‐DA probe was added to the cells and they were incubated for 20 min. After washing twice with PBS, the cells were visualized and imaged using a confocal laser scanning microscopy (CLSM).

In the case of `COc1ccc(-c2nc(-c3cc(C(F)(F)F)cc(C(F)(F)F)c3)n(Cc3ccc(C(=O)NCCOCCOCCOCCn4cc(COc5ccc(N(C(=O)CCl)C(C(=O)NCCc6ccccc6)c6cccs6)cc5Cl)nn4)cc3)c2-c2ccc(OC)cc2)cc1` (stereo not shown) [GDAz-3, 4-((2-(3,5-bis(trifluoromethyl)phenyl)-4,5-bis(4-methoxyphenyl)-1H-imidazol-1-yl)methyl)-N-(2-(2-(2-(2-(4-((2-chloro-4-(2-chloro-N-(2-oxo-2-(phenethylamino)-1-(thiophen-2-yl)ethyl)acetamido)phenoxy)methyl)-1H-1,2,3-triazol-1-yl)ethoxy)ethoxy)ethoxy)ethyl)benzamide], the “Content of MDA” value (MDA) is reported as “increased”, the “Content of Fe2+” value (Fe2+) is reported as “increased” and the “Level of GPX4 mRNA” value (GPX4 mRNA) is reported as “did not significantly affect”. The IC50 (HT1080 cells) was 280 nM, the “Effect on SLC7A11 protein” value (SLC7A11) was “did not show a significant effect” and the “Fluorescence intensity of C11-BODIPY 581/591 (lipid peroxidation)” value (intracellular LPO) was “markedly enhanced”. The “Level of intracellular ROS” value (intracellular ROS) was “enhanced”.
